For one experiment, the target named is T1, human μ opiate receptor (Homo sapiens, UniProt P35372).
T1 construct: purchased PerkinElmer Life Sciences, Zaventem, Belgium RB-HOM; host or cells: CHO-K1 cells (membrane preparation)
Briefly: Affinity for the human μ opiate receptor ([3H]-naloxone displacement, CHO-K1 receptor membrane preparation, SPA). The class given is binding. Particulars: test concentration of 1 μM; for inhibition at 1 µM: read-out: μ (binding on the μ opioid receptor, % inhibition). A digest of the protocol: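 Test compounds, 1 nmol/l [3H]-naloxone and CHO-K1 membranes bearing the human μ opiate receptor are combined with WGA-SPA beads. After 90 minutes at room temperature, plates are centrifuged and radioactivity counted. Specific-binding inhibition at 1 μmol/l is given in percent.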

Experiment [1] concerns the target T2, serotonin (5-HT) reuptake (Rattus norvegicus, UniProt P31652).
T2 construct: synaptosomes are freshly isolated from areas of the rat brain; from tissue; host or cells: rat brain synaptosomes (P2 fraction)
Nature of the experiment: Inhibition of serotonin (5HT) reuptake in synaptosomes from rat brain. Format: biochemical. Particulars: test concentration of 10 μM; for inhibition at 10 µM: read-out: 5-HT (inhibition of reuptake of serotonin, % inhibition). A digest of the protocol: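 Compounds screened at 10 μM and reported as percent inhibition of serotonin uptake. Uptake measured in a freshly prepared P2 synaptosomal fraction from rat brain.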

Consider 21 compounds from patent publication US8106055B2, “Substituted amide compounds” (Gruenenthal GmbH, priority 2007, dated 2012).

T1 sequence (P35372 whole entry): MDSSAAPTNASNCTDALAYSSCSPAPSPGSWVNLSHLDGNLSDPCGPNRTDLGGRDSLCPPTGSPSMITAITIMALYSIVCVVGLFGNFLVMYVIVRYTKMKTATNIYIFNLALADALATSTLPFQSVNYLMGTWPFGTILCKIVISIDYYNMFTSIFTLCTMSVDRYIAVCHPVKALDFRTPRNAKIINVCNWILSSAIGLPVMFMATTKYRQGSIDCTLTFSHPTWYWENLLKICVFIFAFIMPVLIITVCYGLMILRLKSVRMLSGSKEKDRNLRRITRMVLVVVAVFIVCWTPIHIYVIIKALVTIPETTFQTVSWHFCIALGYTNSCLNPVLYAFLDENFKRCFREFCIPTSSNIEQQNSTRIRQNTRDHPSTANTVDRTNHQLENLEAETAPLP
T2 sequence (P31652 whole entry): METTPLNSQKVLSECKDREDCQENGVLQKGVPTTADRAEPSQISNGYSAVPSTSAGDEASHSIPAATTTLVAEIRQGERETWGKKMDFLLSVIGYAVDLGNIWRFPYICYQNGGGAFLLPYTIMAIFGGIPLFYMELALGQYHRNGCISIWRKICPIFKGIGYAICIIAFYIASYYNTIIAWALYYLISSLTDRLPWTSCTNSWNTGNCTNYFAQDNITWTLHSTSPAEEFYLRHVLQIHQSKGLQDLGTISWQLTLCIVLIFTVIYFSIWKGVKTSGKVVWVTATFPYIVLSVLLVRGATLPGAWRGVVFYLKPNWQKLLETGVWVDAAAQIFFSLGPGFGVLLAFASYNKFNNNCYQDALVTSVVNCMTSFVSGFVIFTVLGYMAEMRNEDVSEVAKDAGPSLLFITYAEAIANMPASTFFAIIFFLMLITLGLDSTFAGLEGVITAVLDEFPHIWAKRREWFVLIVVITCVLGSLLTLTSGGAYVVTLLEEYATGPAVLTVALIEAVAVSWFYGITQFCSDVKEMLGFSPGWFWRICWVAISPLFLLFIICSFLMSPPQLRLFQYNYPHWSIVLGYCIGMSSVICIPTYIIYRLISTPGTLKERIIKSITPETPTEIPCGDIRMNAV

For orientation: inhibition means how much of the control response was suppressed. `CN(C)C(c1cccc(F)c1)C1CCC(CCNC(=O)COCCN(C)S(=O)(=O)c2ccc(Cl)cc2Cl)CC1` (stereo not drawn) [Example 126, 2-(2-(2,4-dichloro-N-methylphenylsulfonamido)ethoxy)-N-(2-(4-((dimethylamino)(3-fluorophenyl)methyl)cyclohexyl)ethyl)acetamide]: on human μ opiate receptor, the inhibition at 1 µM was 92%. Moreover, the inhibition at 10 µM in experiment [1] was 86%.

Consider `COc1ccc(S(=O)(=O)N2CCCCC2COCC(=O)NCC2CCC(C(CCc3ccccc3)N(C)C)CC2)cc1OC` (stereo not drawn) [Example 570], for which, at human μ opiate receptor (1 µM), the “μ (binding on the μ opioid receptor, % inhibition)” value came out at 16%. Besides, the “5-HT (inhibition of reuptake of serotonin, % inhibition)” value in experiment [1] (10 µM) was 87%.

With `CN(C)C(c1cccs1)C1CCC(CCNC(=O)COC2CCCN(S(=O)(=O)c3ccccc3)C2)CC1` (stereo not drawn) [Example 100, N-(2-(4-((dimethylamino)(thiophen-2-yl)methyl)cyclohexyl)ethyl)-2-(1-(phenylsulfonyl)piperidin-3-yloxy)acetamide], on human μ opiate receptor, the inhibition at 1 µM amounted to 94%. In experiment [1], the inhibition at 10 µM is 97%.

On to `CN(C)C(c1cccs1)C1CCC(CCNC(=O)COCC2CCCN(S(=O)(=O)c3ccccc3)C2)CC1` (stereo not drawn) [Example 115, N-(2-(4-((dimethylamino)(thiophen-2-yl)methyl)cyclohexyl)ethyl)-2-((1-(phenylsulfonyl)piperidin-3-yl)methoxy)acetamide], for which the inhibition at 1 µM at human μ opiate receptor came out at 91%. The inhibition at 10 µM in experiment [1] amounted to 97%.

`COc1ccc(S(=O)(=O)N2CCCCC2COCC(=O)NCC2CCC(C(c3ccc(F)cc3)N(C)C)CC2)cc1OC` (single isomer, unassigned) [Example 534]: the “μ (binding on the μ opioid receptor, % inhibition)” value at human μ opiate receptor (1 µM) is recorded as 24%. Moreover, in experiment [1] (10 µM), the “5-HT (inhibition of reuptake of serotonin, % inhibition)” value turned out to be 88%.

Regarding `CN(C)C(c1ccc(Cl)cc1)C1CCC(CCNC(=O)COCCN(C)S(=O)(=O)c2ccc(OC(F)(F)F)cc2)CC1` (stereo not drawn) [Example 575], the “μ (binding on the μ opioid receptor, % inhibition)” value at human μ opiate receptor worked out at 11%. Also, the “5-HT (inhibition of reuptake of serotonin, % inhibition)” value in experiment [1] was 77%.

Turning to `COc1ccc(S(=O)(=O)N(C)CCOCC(=O)NCC2CCC(C(CCc3ccccc3)N(C)C)CC2)cc1` (stereo not drawn) [Example 550], the “μ (binding on the μ opioid receptor, % inhibition)” value on human μ opiate receptor is given as 20%. In experiment [1], the “5-HT (inhibition of reuptake of serotonin, % inhibition)” value is on record as 74%.

`CN(C)C(c1cccs1)C1CCC(CNC(=O)COCCN(Cc2ccccc2)S(=O)(=O)c2ccccc2)CC1` (stereo not drawn) [Example 102, 2-(2-(N-benzylphenylsulfonamido)ethoxy)-N-((4-((dimethylamino)(thiophen-2-yl)methyl)cyclohexyl)methyl)acetamide]: on human μ opiate receptor, the inhibition at 1 µM was determined as 94%. Further, in experiment [1], the inhibition at 10 µM came out at 92%.

With `CCN(CCOCC(=O)NCCC1CCC(C(c2cccs2)N(C)C)CC1)S(=O)(=O)c1c(C)cc(OC)c(C)c1C` (stereo not drawn) [Example 103, N-(2-(4-((dimethylamino)(thiophen-2-yl)methyl)cyclohexyl)ethyl)-2-(2-(N-ethyl-4-methoxy-2,3,6-trimethylphenylsulfonamido)ethoxy)acetamide], the inhibition at 1 µM on human μ opiate receptor stood at 94%. For the same compound, in experiment [1], the inhibition at 10 µM was determined as 95%.

Regarding `COc1ccc(S(=O)(=O)N2CCCCC2COCC(=O)NCC2CCC(C(c3ccc(F)cc3)N(C)C)CC2)cc1OC` (single isomer, unassigned) [Example 537], on human μ opiate receptor (1 µM), the “μ (binding on the μ opioid receptor, % inhibition)” value is on record as 35%. Besides, the “5-HT (inhibition of reuptake of serotonin, % inhibition)” value in experiment [1] (10 µM) was found to be 92%.

With `CN(C)C(CCc1ccccc1)C1CCC(CNC(=O)COCCN(C)S(=O)(=O)c2ccc(OC(F)(F)F)cc2)CC1` (stereo not drawn) [Example 567], the “μ (binding on the μ opioid receptor, % inhibition)” value at human μ opiate receptor turned out to be 23%. For the same compound, the “5-HT (inhibition of reuptake of serotonin, % inhibition)” value in experiment [1] amounted to 93%.

Consider `COc1cc(C)c(S(=O)(=O)N(C)CCOCC(=O)NC2CCC(C(c3cccs3)N(C)C)CC2)c(C)c1` (stereo not drawn) [Example 111, N-(4-((dimethylamino)(thiophen-2-yl)methyl)cyclohexyl)-2-(2-(4-methoxy-N,2,6-trimethylphenylsulfonamido)ethoxy)acetamide], for which the inhibition at 1 µM on human μ opiate receptor was determined as 92%. Also, the inhibition at 10 µM in experiment [1] is 85%.

Consider `COc1cc(C)c(S(=O)(=O)N(CCOCC(=O)NCCC2CCC(C(c3ccc(Cl)cc3)N(C)C)CC2)Cc2ccccc2)c(C)c1` (stereo not drawn) [Example 569], for which the “μ (binding on the μ opioid receptor, % inhibition)” value at human μ opiate receptor amounted to 10%. Also, the “5-HT (inhibition of reuptake of serotonin, % inhibition)” value in experiment [1] amounted to 52%.

As for `COc1ccc(S(=O)(=O)N2CCCCC2COCC(=O)NC2CCC(C(c3ccc(F)cc3)N(C)C)CC2)cc1OC` (stereo not drawn) [Example 555], the “μ (binding on the μ opioid receptor, % inhibition)” value at human μ opiate receptor was found to be 23%. In addition, the “5-HT (inhibition of reuptake of serotonin, % inhibition)” value in experiment [1] was determined as 86%.

For the compound `COc1cc(C)c(S(=O)(=O)N(CCOCC(=O)NCC2CCC(C(c3ccc(F)cc3)N(C)C)CC2)Cc2ccccc2)c(C)c1C` (stereo not drawn) [Example 563], the “μ (binding on the μ opioid receptor, % inhibition)” value at human μ opiate receptor was 25%. Moreover, the “5-HT (inhibition of reuptake of serotonin, % inhibition)” value in experiment [1] is given as 90%.

For `CN(C)C(c1ccccc1)C1CCC(CNC(=O)COC2CCCN(S(=O)(=O)c3ccccc3)C2)CC1` (stereo not drawn) [Example 114, N-((4-((dimethylamino)(phenyl)methyl)cyclohexyl)methyl)-2-(1-(phenylsulfonyl)piperidin-3-yloxy)acetamide], the inhibition at 1 µM at human μ opiate receptor turned out to be 85%. Besides, in experiment [1], the inhibition at 10 µM was found to be 96%.

Regarding `CN(C)C(c1cccs1)C1CCC(CNC(=O)COCCN(C)S(=O)(=O)c2ccc(Cl)cc2Cl)CC1` (stereo not drawn) [Example 8, 2-(2-(2,4-dichloro-N-methylphenylsulfonamido)ethoxy)-N-((4-((dimethylamino)(thiophen-2-yl)methyl)cyclohexyl)methyl)acetamide], on human μ opiate receptor, the inhibition at 1 µM stood at 98%. Besides, in experiment [1], the inhibition at 10 µM stood at 81%.

As to `CN(C)C(c1cccc(F)c1)C1CCC(NC(=O)COC2CCCCC2N(C)S(=O)(=O)c2ccc(Cl)c(Cl)c2)CC1` (stereo not drawn) [Example 132, 2-(2-(3,4-dichloro-N-methylphenylsulfonamido)cyclohexyloxy)-N-(4-((dimethylamino)(3-fluorophenyl)methyl)cyclohexyl)acetamide], the inhibition at 1 µM at human μ opiate receptor worked out at 91%. For the same compound, the inhibition at 10 µM in experiment [1] is 83%.

In the case of `COc1cc(C)c(S(=O)(=O)N2CCCC(OCC(=O)NCC3CCC(C(CCc4ccccc4)N(C)C)CC3)C2)c(C)c1C` (stereo not drawn) [Example 551], at human μ opiate receptor, the “μ (binding on the μ opioid receptor, % inhibition)” value was 35%. Also, the “5-HT (inhibition of reuptake of serotonin, % inhibition)” value in experiment [1] came out at 85%.

For the compound `CN(C)C(c1cccs1)C1CCC(CCNC(=O)COC2CCN(S(=O)(=O)c3cccc(C(F)(F)F)c3)C2)CC1` (stereo not drawn) [Example 96, N-(2-(4-((dimethylamino)(thiophen-2-yl)methyl)cyclohexyl)ethyl)-2-(1-(3-(trifluoromethyl)phenylsulfonyl)pyrrolidin-3-yloxy)acetamide], on human μ opiate receptor, the inhibition at 1 µM was determined as 92%. Also, the inhibition at 10 µM in experiment [1] was found to be 81%.

Turning to `CN(C)C(CCc1ccccc1)C1CCC(CNC(=O)COCCN(C)S(=O)(=O)c2cccc(C(F)(F)F)c2)CC1` (stereo not drawn) [Example 556], the “μ (binding on the μ opioid receptor, % inhibition)” value at human μ opiate receptor is 27%. The “5-HT (inhibition of reuptake of serotonin, % inhibition)” value in experiment [1] came out at 86%.
